The values below come from patent US20120101157A1, “4,5-Diamino-3-Halo-2-Hydroxybenzoic Acid Derivatives and Preparations Thereof” (NATIONAL DEFENSE MEDICAL CENTER, priority 2010, published 2012).

The test system of one data set is H1N1 virus. In words: microbe, parasite or virus in culture. The class given is cell-based. Conditions: for MIC: Influenza A virus, read-out: MIC (minimum inhibitory concentration, cell survival rate >75%); for anti-H1N1 / anti-influenza activity (in words) / SI (selective index=CC50/MIC): H1N1 in MDCK cells.
Another data set can be described thus: in vitro. Conditions: dog.
For a further data set, the system named is H5N1. Particulars: read-out: EC50 (50% effective concentration); H5N1, according to previous studies; cited from earlier work.
The mark [1] stands for this setting: H1N1 at 0.01 MOI in MDCK cells, 48 h, MTT.

Each structure is given as a SMILES string. pEC50: −log10 of the molar value. In brackets after ≈: the same amount, converted by molar mass. Entries after “also recorded” stand apart in the source; their conditions may differ. Read-outs that look alike come from different tables or passages of the source.

With `Nc1ccc(C(=O)O)c(O)c1` [PAS, p-aminosalicylic acid, reference compound], the MIC with H1N1 virus (H1N1, 48 h) was above 100 µg/mL. In addition, the CC50 in the data set “in vitro” is above 100 µg/mL.

For `CCCC(=O)Nc1cc(O)c(C(=O)OCC)cc1NC(=N)N` [compound 7e, ethyl 4-(butyramido)-5-guanidino-2-hydroxybenzoate], in the data set with H1N1 virus, the “anti-H1N1 / anti-influenza activity (in words)” value was “no inhibiting activity”. Moreover, in the data set with H1N1 virus (setting [1]), the MIC is above 100 µg/mL. Besides, in “in vitro”, the CC50 is above 100 µg/mL.

As usually defined, the melting point is the temperature, or range, at which the solid turns liquid. `CC(=O)Nc1c(N)cc(C(=O)O)c(O)c1Br` [compound 8, 4-(acetamido)-5-amino-3-bromo-2-hydroxybenzoic acid] registered a melting point of 210 to 211 °C. Besides, the “anti-H1N1 / anti-influenza activity (in words)” value with H1N1 virus is recorded as “better anti-H1N1 activity; also recorded: effectively inhibit influenza viral activity; also recorded: preferred anti-influenza activity”. Moreover, the MIC in the data set on H1N1 virus (setting [1]) is 1.56 µg/mL (≈ 5.4 µM). For the same compound, the CC50 in the data set “in vitro” is above 100 µg/mL.

For the compound `NC(=O)c1ncn([C@@H]2O[C@H](CO)[C@@H](O)[C@H]2O)n1` [Ribavirin, reference compound], in the data set on H1N1 virus (H1N1, 48 h), the MIC turned out to be 1.56 µg/mL (≈ 6.39 µM). Also, the pEC50 in the data set with H5N1 was 4.66 to 5.22.

In turn, `CC(=O)Nc1cc(O)c(C(=O)O)cc1N` [compound 6a] gave a melting point of 295 to 297 °C. In the data set on H1N1 virus, the “anti-H1N1 / anti-influenza activity (in words)” value was “better anti-H1N1 activity; also recorded: effectively inhibit influenza viral activity”. For the same compound, the MIC in the data set with H1N1 virus (setting [1]) was determined as 50 µg/mL (≈ 238 µM). Further, the CC50 in “in vitro” was above 100 µg/mL.

For `CCCC(=O)Nc1cc(O)c(C(=O)OCC)cc1N` [compound 6e], the melting point was in the range of 135 to 137 °C. Also, in the data set on H1N1 virus, the “SI (selective index=CC50/MIC)” value is recorded as above 64 and the “anti-H1N1 / anti-influenza activity (in words)” value is “better anti-H1N1 activity; also recorded: effectively inhibit influenza viral activity; also recorded: preferred anti-influenza activity”. For the same compound, the MIC in the data set with H1N1 virus (setting [1]) was 1.56 µg/mL (≈ 5.86 µM). In “in vitro”, this compound had a CC50 above 100 µg/mL.

As for `COC(=O)c1cc(NC(=N)N)c(NC(C)=O)c(Br)c1O` [compound 7f, methyl 4-(acetamido)-3-bromo-5-guanidino-2-hydroxybenzoate], the melting point fell in the range of 238 to 240 °C. Also, the “anti-H1N1 / anti-influenza activity (in words)” value with H1N1 virus is “no inhibiting activity”. Further, the MIC in the data set with H1N1 virus (setting [1]) was above 100 µg/mL. Besides, the CC50 in the data set “in vitro” is above 100 µg/mL.

Consider `COC(=O)c1cc(N)c(NC(C)=O)c(Br)c1O` [compound 6f, methyl 4-(acetamido)-5-amino-3-bromo-2-hydroxybenzoate], for which the melting point was 217 to 219 °C. In the data set on H1N1 virus, the “SI (selective index=CC50/MIC)” value was above 128 and the “anti-H1N1 / anti-influenza activity (in words)” value was “better anti-H1N1 activity; also recorded: effectively inhibit influenza viral activity; also recorded: preferred anti-influenza activity”. In the data set with H1N1 virus (setting [1]), the MIC was determined as 0.78 µg/mL (≈ 2.57 µM). The CC50 in the data set “in vitro” was above 100 µg/mL.

Turning to `COC(=O)c1cc(N)c(NC(C)=O)cc1O` [compound 6b], the melting point is 204 to 206 °C. Moreover, in the data set on H1N1 virus, the “anti-H1N1 / anti-influenza activity (in words)” value is recorded as “better anti-H1N1 activity; also recorded: effectively inhibit influenza viral activity; also recorded: preferred anti-influenza activity”. Further, the MIC with H1N1 virus (setting [1]) is 1.56 µg/mL (≈ 6.96 µM). The CC50 in “in vitro” is above 100 µg/mL.

`CC(=O)Nc1cc(O)c(C(=O)O)cc1NC(=N)N` [compound 7a, 4-(acetamido)-5-guanidino-2-hydroxybenzoic acid]: the melting point fell in the range of 334 to 357 °C. In addition, the “anti-H1N1 / anti-influenza activity (in words)” value in the data set with H1N1 virus is on record as “better anti-H1N1 activity; also recorded: effectively inhibit influenza viral activity”. In the data set on H1N1 virus (setting [1]), the MIC turned out to be 25 µg/mL (≈ 99.1 µM). The compound also registered a CC50 in the data set “in vitro” above 100 µg/mL.

In turn, `COC(=O)c1cc(NC(=N)N)c(NC(C)=O)cc1O` [compound 7b, methyl 4-(acetamido)-5-guanidino-2-hydroxybenzoate] registered a melting point of 233 to 234 °C. Besides, in the data set on H1N1 virus, the “anti-H1N1 / anti-influenza activity (in words)” value was “better anti-H1N1 activity; also recorded: effectively inhibit influenza viral activity”. In addition, the MIC in the data set with H1N1 virus (setting [1]) is 25 µg/mL (≈ 93.9 µM). Further, the CC50 in the data set “in vitro” is above 100 µg/mL.
